Article PMC10495984, “Structural basis of IRGB10 oligomerization by GTP hydrolysis” (Frontiers in Immunology, 2023)
Positions count from the first letter of the chain named.

T1: IRGB10 (Mus musculus, UniProt U5NFV2)
T1 construct: recombinant from E. coli BL21(DE3), Ni-NTA purified, C-terminal LEH from plasmid kept; modelled residues 16-406
T1 sequence (U5NFV2 1-406): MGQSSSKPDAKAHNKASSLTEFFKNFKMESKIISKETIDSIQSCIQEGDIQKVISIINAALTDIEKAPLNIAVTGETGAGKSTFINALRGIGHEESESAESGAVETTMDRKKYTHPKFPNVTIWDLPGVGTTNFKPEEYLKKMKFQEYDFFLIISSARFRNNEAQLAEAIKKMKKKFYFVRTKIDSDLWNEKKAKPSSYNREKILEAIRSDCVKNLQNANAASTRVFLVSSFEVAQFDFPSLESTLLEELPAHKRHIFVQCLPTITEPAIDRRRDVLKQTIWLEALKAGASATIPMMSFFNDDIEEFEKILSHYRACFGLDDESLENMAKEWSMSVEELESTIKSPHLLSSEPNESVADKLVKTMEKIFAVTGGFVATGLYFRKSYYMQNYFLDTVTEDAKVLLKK

B1: Immunity-related GTPase B10 (IRGB10) (enzyme, mouse)
chain: T1 sequence (U5NFV2 1-406) with K15M, M108K, N161D, A207V
notes: IRGB10, immunity-related GTPase B10, member of the mouse IRG (p47 GTPase) family; the crystal model runs from residue 16 to residue 406 and is followed by LEH from the plasmid; nucleotide-free after a 1.5 M NaCl wash on the resin; GppNHp, GTP or GDP added afterwards; also called wildtype IRGB10; nucleotide-free IRGB10; source: E. coli BL21 (DE3), purified (Ni-NTA, SEC)

Legend:
IRGB10 = biological target: T1, IRGB10; assay: turbidity at […] nm, SEC and native PAGE of GTP-driven oligomerization; assay type: biochemical; details: nucleotide-free protein, MgCl2, 37 °C, pH 8.0; hydrolysis inferred from oligomerization
[1] = biological target: the molecule itself; assay: SEC-MALS; GDP-bound protein (endogenous E. coli GDP kept); Superdex 200 HR 10/30, 20 mM Tris-HCl pH 8.0, 150 mM NaCl

Row | Molecule | turbidity at 350 nm, SEC and native PAGE of GTP-driven oligomerization (IRGB10) | stoichiometry N [1]
1 | Nc1nc2c(ncn2[C@@H]2O[C@H](COP(=O)(O)OP(=O)(O)OP(=O)(O)O)[C@@H](O)[C@H]2O)c(=O)[nH]1 [GTP] | The results of these turbidity assays indicated that GTP hydrolysis caused the oligomerization of IRGB10. | –
2 | B1 | – | 2
